Tests used:
[1] = refractive index (Na D-line) (dimensionless); conditions: 101.33 kPa, Liquid, Standard Abbe refractometry
[2] = 101.33 kPa, Liquid; for speed of sound: Sing-around technique in a fixed-path interferometer; for mass density: Vibrating tube method

CC(C)CCl [1-chloro-2-methylpropane]
Conditions | mass density, [2] [kg/m3] | refractive index, [1] | speed of sound, [2] [m/s]
283.15 K | 888.845 | 1.40354 | 1141.7
288.15 K | 883.211 | 1.4008 | 1120.7
293.15 K | 877.539 | 1.39802 | 1099.6
298.15 K | 871.833 | 1.39529 | 1078.7
303.15 K | 866.096 | 1.39245 | 1057.8
308.15 K | 860.319 | 1.38963 | 1037
313.15 K | 854.502 | 1.38683 | 1016.3

CCCCCl [1-chlorobutane]
Conditions | mass density, [2] [kg/m3] | refractive index, [1] | speed of sound, [2] [m/s]
283.15 K | 897.339 | 1.4075 | 1180.1
288.15 K | 891.855 | 1.40481 | 1159.5
293.15 K | 886.335 | 1.40212 | 1138.8
298.15 K | 880.705 | 1.3995 | 1118.2
303.15 K | 875.204 | 1.39672 | 1097.6
308.15 K | 869.585 | 1.39395 | 1077.2
313.15 K | 863.882 | 1.39131 | 1056.9

CC(C)(C)Cl [2-chloro-2-methylpropane]
Conditions | mass density, [2] [kg/m3] | refractive index, [1] | speed of sound, [2] [m/s]
283.15 K | 855.249 | 1.39115 | 1046.9
288.15 K | 849.243 | 1.38821 | 1025.5
293.15 K | 843.191 | 1.38522 | 1004.1
298.15 K | 837.096 | 1.38225 | 983.25
303.15 K | 830.958 | 1.37921 | 961.51
308.15 K | 824.772 | 1.37619 | 940.46
313.15 K | 818.536 | 1.37312 | 919.41

CCC(C)Cl (stereo not given) [2-chlorobutane]
Conditions | mass density, [2] [kg/m3] | refractive index, [1] | speed of sound, [2] [m/s]
283.15 K | 884.34 | 1.40226 | 1127.7
288.15 K | 878.756 | 1.39953 | 1107.2
293.15 K | 873.13 | 1.3968 | 1086.7
298.15 K | 867.474 | 1.39404 | 1066.2
303.15 K | 861.779 | 1.39125 | 1045.9
308.15 K | 856.044 | 1.38844 | 1025.3
313.15 K | 850.266 | 1.38562 | 1005.3

CC(C)OC(C)C [diisopropyl ether]
Conditions | mass density, [2] [kg/m3] | refractive index, [1] | speed of sound, [2] [m/s]
283.15 K | 733.833 | 1.37358 | 1065.5
288.15 K | 728.692 | 1.37084 | 1043.1
293.15 K | 723.509 | 1.36812 | 1020.6
298.15 K | 718.289 | 1.36525 | 998.27
303.15 K | 713.032 | 1.36242 | 976.02
308.15 K | 707.727 | 1.35956 | 953.94
313.15 K | 702.378 | 1.35667 | 932.01
